Laboratory results published in patent publication US8163793B2, “Proline derivatives” (Hoffman-La Roche Inc., priority 2009, dated 2012).
pIC50: −log10 of the molar value.

Molecular target: Cathepsin S (UniProt P25774)
Assay: Cathepsin enzyme inhibition assay (fluorogenic peptide substrate Z-Val-Val-Arg-AMC), Cathepsin S
Assay type: biochemical, human and mouse
Settings: enzyme 1 nM, substrate 20 μM, pH 6.5; read-out: CatS IC50
Method: Cathepsin Enzyme Inhibition Assay
Enzyme activity is measured by observing the increase in fluorescence intensity caused by cleavage of a peptide substrate containing a fluorophore whose emission is quenched in the intact peptide.
Assay buffer: 100 mM potassium phosphate pH 6.5, EDTA-Na 5 mM, Triton X-100 0.001%, DDT 5 mM.
Enzymes (all at 1 nM): human and mouse Cathepsin S, Cat K, Cat B, Cat L Substrate (20 μM): Z-Val-Val-Arg-AMC, except for Cat K which uses Z-Leu-Arg-AMC (both from Bachem).
AMC=7-Amino-4-Methyl-Coumarin.
Enzyme is added to the substance dilutions in 96-well microtitre plates and the reaction is started with substrate. […] IC50 are calculated by standard methods. The results are expressed in μM in the following table.

Compound	pIC50
Cc1cc(N2C[C@H](S(=O)(=O)c3ccc(N4CCN(C)CC4)cc3C(F)(F)F)C[C@H]2C(=O)NC2(C#N)CC2)n(C2CCOCC2)n1 [Example 404, (2S,4R)-4-[4-(4-Methyl-piperazin-1-yl)-2-trifluoromethyl-benzenesulfonyl]-1-[5-methyl-2-(tetrahydro-pyran-4-yl)-2H-pyrazol-3-yl]-pyrrolidine-2-carboxylic acid (1-cyano-cyclopropyl)-amide]	9.39
N#CC1(NC(=O)[C@@H]2C[C@@H](S(=O)(=O)c3ccc(-c4ccc(F)cc4F)cc3C(F)(F)F)CN2C(=O)C2(C(F)(F)F)CC2)CC1 [Example 263, (2S,4R)-4-(2′,4′-Difluoro-3-trifluoromethyl-biphenyl-4-sulfonyl)-1-(1-trifluoromethyl-cyclopropanecarbonyl)-pyrrolidine-2-carboxylic acid (1-cyano-cyclopropyl)-amide]	9.48
N#CC1(NC(=O)[C@@H]2C[C@@H](S(=O)(=O)Cc3ccccc3)CN2C(=O)C2(c3ccc(Cl)cc3)CC2)CC1 [Example 458, (2S,4R)-4-(benzylsulfonyl)-1-(1-(4-chlorophenyl)cyclopropanecarbonyl)-N-(1-cyanocyclopropyl)pyrrolidine-2-carboxamide]	4.21
Cc1ccc(C2(C(=O)N3C[C@H](S(=O)(=O)c4ccccc4Cl)C[C@H]3C(=O)NC3(C#N)CC3)CC2)cc1 [Example 438, (2S,4R)-4-(2-chlorophenylsulfonyl)-N-(1-cyanocyclopropyl)-1-(1-p-tolylcyclopropane-carbonyl)pyrrolidine-2-carboxamide]	9.28
N#CC1(NC(=O)[C@@H]2C[C@@H](S(=O)(=O)c3ccc(-n4ccnc4)cc3Cl)CN2C(=O)C2(c3ccc(Cl)cc3)CC2)CC1 [Example 325, (2S,4R)-4-(2-Chloro-4-imidazol-1-yl-benzenesulfonyl)-1-[1-(4-chloro-phenyl)-cyclopropanecarbonyl]-pyrrolidine-2-carboxylic acid (1-cyano-cyclopropyl)-amide]	10.10
N#CC1(NC(=O)[C@@H]2C[C@@H](S(=O)(=O)c3ccc(F)cc3Cl)CN2C(=O)C2(c3ccc(Cl)cc3)CC2)CC1 [Example 312, (2S,4R)-4-(2-Chloro-4-fluoro-benzenesulfonyl)-1-[1-(4-chloro-phenyl)-cyclopropanecarbonyl]-pyrrolidine-2-carboxylic acid (1-cyano-cyclopropyl)-amide]	9.71
CC(C)c1nccn1-c1ccc(S(=O)(=O)[C@@H]2C[C@@H](C(=O)NC3(C#N)CC3)N(C(=O)C3(c4ccc(Cl)cc4)CC3)C2)c(Cl)c1 [Example 336, (2S,4R)-4-[2-Chloro-4-(2-isopropyl-imidazol-1-yl)-benzenesulfonyl]-1-[1-(4-chloro-phenyl)-cyclopropanecarbonyl]-pyrrolidine-2-carboxylic acid (1-cyano-cyclopropyl)-amide]	9.48
CN1CCN(c2ccc(S(=O)(=O)[C@@H]3C[C@@H](C(=O)NC4(C#N)CC4)N(C(=O)C4(c5ccc(Cl)cc5)CC4)C3)c(Cl)c2)CC1 [Example 324, (2S,4R)-4-[2-Chloro-4-(4-methyl-piperazin-1-yl)-benzenesulfonyl]-1-[1-(4-chloro-phenyl)-cyclopropanecarbonyl]-pyrrolidine-2-carboxylic acid (1-cyano-cyclopropyl)-amide]	10.05
N#CC1(NC(=O)[C@@H]2C[C@@H](S(=O)(=O)c3ccccc3Cl)CN2C(=O)C2(c3ccc(Cl)cc3)CC2)CC1 [Example 215, (2S,4R)-4-(2-Chloro-benzenesulfonyl)-1-[1-(4-chloro-phenyl)-cyclopropanecarbonyl]-pyrrolidine-2-carboxylic acid (1-cyano-cyclopropyl)-amide]	9.70
N#CC1(NC(=O)[C@@H]2C[C@@H](S(=O)(=O)c3ccc(N4CCN(C5CC5)CC4)cc3Cl)CN2C(=O)C2(c3ccc(Cl)cc3)CC2)CC1 [Example 330, (2S,4R)-4-[2-Chloro-4-(4-cyclopropyl-piperazin-1-yl)-benzenesulfonyl]-1-[1-(4-chloro-phenyl)-cyclopropanecarbonyl]-pyrrolidine-2-carboxylic acid (1-cyano-cyclopropyl)-amide]	10.10
N#CC1(NC(=O)[C@@H]2C[C@@H](S(=O)(=O)c3ccc(N4CCN(CC(F)(F)F)CC4)cc3Cl)CN2C(=O)C2(C(F)(F)F)CC2)CC1 [Example 291, (2S,4R)-4-{2-Chloro-4-[4-(2,2,2-trifluoro-ethyl)-piperazin-1-yl]-benzenesulfonyl}-1-(1-trifluoromethyl-cyclopropanecarbonyl)-pyrrolidine-2-carboxylic acid (1-cyano-cyclopropyl)-amide]	7.83
Cc1cc(N2C[C@H](S(=O)(=O)c3ccc(N4CC(F)(F)C4)cc3C(F)(F)F)C[C@H]2C(=O)NC2(C#N)CC2)n(C2CCOCC2)n1 [Example 403, (2S,4R)-4-[4-(3,3-Difluoro-azetidin-1-yl)-2-trifluoromethyl-benzenesulfonyl]-1-[5-methyl-2-(tetrahydro-pyran-4-yl)-2H-pyrazol-3-yl]-pyrrolidine-2-carboxylic acid (1-cyano-cyclopropyl)-amide]	9.31
CC(C)(C)N1CCN(c2ccc(S(=O)(=O)[C@@H]3C[C@@H](C(=O)NC4(C#N)CC4)N(C(=O)C4(c5ccc(Cl)cc5)CC4)C3)c(Cl)c2)CC1 [Example 329, (2S,4R)-4-[4-(4-tert-Butyl-piperazin-1-yl)-2-chloro-benzenesulfonyl]-1-[1-(4-chloro-phenyl)-cyclopropanecarbonyl]-pyrrolidine-2-carboxylic acid (1-cyano-cyclopropyl)-amide]	9.94
Cc1cc(N2C[C@H](S(=O)(=O)c3ccccc3C(F)(F)F)C[C@H]2C(=O)NC2(C#N)CC2)nn1C [Example 255, (2S,4R)-1-(1,5-Dimethyl-1H-pyrazol-3-yl)-4-(2-trifluoromethyl-benzenesulfonyl)-pyrrolidine-2-carboxylic acid (1-cyano-cyclopropyl)-amide]	8.25
Cc1nccn1-c1ccc(S(=O)(=O)[C@@H]2C[C@@H](C(=O)NC3(C#N)CC3)N(C(=O)C3(c4ccc(Cl)cc4)CC3)C2)c(Cl)c1 [Example 326, (2S,4R)-4-[2-Chloro-4-(2-methyl-imidazol-1-yl)-benzenesulfonyl]-1-[1-(4-chloro-phenyl)-cyclopropanecarbonyl]-pyrrolidine-2-carboxylic acid (1-cyano-cyclopropyl)-amide]	9.74
CN1CCN(c2ccc(S(=O)(=O)[C@@H]3CC(C(=O)NC4(C#N)CC4)N(C(=O)C4(C(F)(F)F)CC4)C3)c(Cl)c2)CC1 (stereo partly drawn) [Example 305, (R)-4-[2-Chloro-4-(4-methyl-piperazin-1-yl)-benzenesulfonyl]-1-(1-trifluoromethyl-cyclopropanecarbonyl)-pyrrolidine-2-carboxylic acid (1-cyano-cyclopropyl)-amide]	7.71
Cc1cc(N2C[C@H](S(=O)(=O)c3ccccc3C(F)(F)F)C[C@H]2C(=O)NC2(C#N)CC2)n[nH]1 [Example 286, (2S,4R)-1-(5-Methyl-1H-pyrazol-3-yl)-4-(2-trifluoromethyl-benzenesulfonyl)-pyrrolidine-2-carboxylic acid (1-cyano-cyclopropyl)-amide]	7.82
